Read-outs that look alike come from different tables or passages of the source.

Data on 5 compounds can be found in US4880841A, “Process of producing phenethylamine derivatives” (Yamanouchi Pharmaceutical Co., Ltd., priority 1980, dated 1989).

One experiment relates to α-adrenergic. Briefly: α-Adrenergic blocking action: antagonism of the hypertensive response to phenylephrine in anesthetized rats. The following applies: Rattus norvegicus, iv, read-out: α-blocking activity (rat) ED50 (mg/kg) i.v. In kind it is in vivo. The procedure: (§1) The pharmacological effects of the compounds of this invention were determined by the following experiments. The effects of the typical compounds of this invention were compared with those of 5-{1-hydroxy-2-[2-(2-methoxyphenoxy)ethylamino]ethyl}-2-methylbenzenesulfonamide (referred to as "Compound A") which is one of the typical compounds disclosed in British Pat. No. 2,006,772 and phentolamine.
A. α-Adrenergic blocking action:
The blood pressure was measured in the rats anesthetized with urethane and treated with pentolinium. The effects of the test samples (intravenous injection) to antagonize the hypertensive response to phenylephrine (10 μg/Kg i.v.) were measured and the results were shown in Table I.

The nature of experiment [1]: Antihypertensive effects in spontaneously hypertensive rats (oral administration, tail cuff method). It counts as in vivo. To be noted: 30 mg/kg P.O., spontaneously hypertensive rats with systolic blood pressure higher than 150 mmHg. As to the method:
as §1
B. Antihypertensive effects in spontaneously hypertensive rats:
Oral administration:--The systolic blood pressure was measured indirectly by the tail cuff method using a programmed electrosphygmanometer (Nacro-Bio-Systems Inc., PE-300) on spontaneously hypertensive rats having the systolic blood pressure of higher than 150 mmHg, the results being shown in Table II.

The mark [2] stands for this setting: rats anesthetized with urethane and treated with pentolinium, i.v. test sample, phenylephrine 10 μg/Kg i.v.

In the case of `COc1ccccc1OCCNCC(O)c1ccc(C)c(S(N)(=O)=O)c1` (stereo not shown) [Compound A, 5-{1-hydroxy-2-[2-(2-methoxyphenoxy)ethylamino]ethyl}-2-methylbenzenesulfonamide, reference compound], the ED50 in the experiment with α-adrenergic (setting [2]) worked out at 0.032 mg/kg. In addition, the “change in systolic blood pressure (mm Hg) at stated dose P.O.” value (shortened to “change … at stated dose P.O.”) in experiment [1] was -30 mm Hg.
Take `COc1ccccc1OCCNCC(O)c1ccc(C)c([S+](C)[O-])c1.O=C(O)C(=O)O` (stereo not drawn) [Example 5, α-{[2-(2-Methoxyphenoxy)ethylamino]methyl}-4-methyl-3-methylsulfinylbenzenemethanol oxalate]: the ED50 with α-adrenergic (setting [2]) was 0.045 mg/kg. The “change … at stated dose P.O.” value in experiment [1] is -60 mm Hg.
For the compound `CCOc1ccccc1OCCNC(C)Cc1ccc(OC)c(S(C)(=O)=O)c1.Cl` (stereo not shown) [Example 12, 4-{2-[2-(2-Ethoxyphenoxy)ethylamino]-2-methylethyl}-2-(methylsulfonyl)anisole hydrochloride], the ED50 in the experiment with α-adrenergic was 0.00014 mg/kg. The “change … at stated dose P.O.” value in experiment [1] is -58 mm Hg.
Turning to `CCOc1ccccc1OCCNC(C)Cc1ccc(OC)c(SC)c1.Cl` (stereo not shown) [Example 8, 4-{2-[2-(2-Ethoxyphenoxy)ethylamino]-2-methylethyl}-2-(methylthio)anisole hydrochloride], the ED50 with α-adrenergic was determined as 0.0019 mg/kg. For the same compound, in experiment [1], the “change … at stated dose P.O.” value is recorded as -48 mm Hg.
With `Cc1ccc(N(CC2=NCCN2)c2cccc(O)c2)cc1` [phentolamine, reference compound], in the experiment on α-adrenergic (setting [2]), the ED50 worked out at 0.061 mg/kg. The “change … at stated dose P.O.” value in experiment [1] was -53 mm Hg.
